Source: patent publication US20190262261A1, “RADIATION SENSITIZER OR ANTI-CANCER CHEMOTHERAPY SENSITIZER” (priority 2006, published 2019)

Key:
[1] = Pain on intratumoral injection into SCCVII tumors of mice; format: in vivo, C3H/He mouse; settings: 1 ml, 27-gage needle, pH 6.8, 0.5% hydrogen peroxide, five mice per group, tumor about 10 mm
Experimental: (1) Mouse squamous epithelium cancer cells (SCCVII tumor cells) were transplanted into the right leg of the same kind of C3H/He mouse (8-week-old female), and the following experiment was conducted when the tumor had grown to about 10 mm in diameter.
When a 27-gage thin needle was used to intratumorally inject 1 ml of physiological saline (pH 6.8) containing 0.5% hydrogen peroxide into the tumors of five mice, the mice were all observed to feel strong pain, violently resisting the injection.

[2] = Pain on subcutaneous injection in normal volunteers; format: in vivo, human; settings: 1 ml subcutaneous, pH 6.8, 0.5% hydrogen peroxide
Experimental: (2) Based on the above results, the following experiment was conducted on five normal volunteers.
When a 27-gage thin needle was used to subcutaneously inject 1 ml of physiological saline (pH 6.8) containing 0.5% hydrogen peroxide into the inside of the left arms of five normal volunteers, all complained of severe pain limited to the injection site that lasted about 1 hour.

[3] = test system: inoperable locally advanced malignant melanoma
Experimental: For a case of inoperable locally advanced malignant melanoma, sterilized cut cotton soaked in a hydrogen peroxide solution having a concentration of approximately 3 weight percent was used as a bolus, and irradiation by an electron beam from a linear accelerator (radiosensitization therapy) was then conducted.
Specifically, sterilized cut cotton soaked in a hydrogen peroxide solution having a concentration of approximately 3% was applied to the affected area of the locally advanced malignant melanoma as a bolus, and irradiation was conducted three times a week for four weeks, with each radiation dose amounting to 4 Gy (12 times, for a total radiation dosage of 48 Gy).

[4] = test system: radioresistant osteosarcoma cell lines (HS-Os-1); settings: 0.1 mM in culture solution, radiation in the order of 10 Gy; cited from earlier work

OO [hydrogen peroxide]
pain of the intratumoral injection [1]: strong pain
pain at the injection site ([2]; inside of arm, 27-gage needle, five volunteers): severe pain
duration of pain at the injection site ([2]; left arm): about 1 hour
length of malignant melanoma ([3]; 2 weeks after RT, approximately 3% solution on cut cotton as bolus, 4 Gy x 12, total 48 Gy, approximately 8 cm before radiotherapy): approximately 5 cm
tumor outcome (summary in disclosure) ([3]; approximately 3 weight percent solution as bolus, 4 Gy three times a week, total 48 Gy): disappearance of the tumor
tumor outcome ([3]; three months after termination of radiotherapy, approximately 3% solution as bolus, total 48 Gy): almost disappeared
effect on irradiated cells (reactive oxygen species, apoptosis) [4]: giving rise to apoptosis
